Assay results taken from article PMC6695839, “Interspecies Variation in NCMN-O-Demethylation in Liver Microsomes from Various Species” (Molecules, 2019).

T1: CYP1A in beagle dog liver microsomes (DLM) (Canis lupus familiaris, UniProt P56592)
T1 sequence (P56592 2-512): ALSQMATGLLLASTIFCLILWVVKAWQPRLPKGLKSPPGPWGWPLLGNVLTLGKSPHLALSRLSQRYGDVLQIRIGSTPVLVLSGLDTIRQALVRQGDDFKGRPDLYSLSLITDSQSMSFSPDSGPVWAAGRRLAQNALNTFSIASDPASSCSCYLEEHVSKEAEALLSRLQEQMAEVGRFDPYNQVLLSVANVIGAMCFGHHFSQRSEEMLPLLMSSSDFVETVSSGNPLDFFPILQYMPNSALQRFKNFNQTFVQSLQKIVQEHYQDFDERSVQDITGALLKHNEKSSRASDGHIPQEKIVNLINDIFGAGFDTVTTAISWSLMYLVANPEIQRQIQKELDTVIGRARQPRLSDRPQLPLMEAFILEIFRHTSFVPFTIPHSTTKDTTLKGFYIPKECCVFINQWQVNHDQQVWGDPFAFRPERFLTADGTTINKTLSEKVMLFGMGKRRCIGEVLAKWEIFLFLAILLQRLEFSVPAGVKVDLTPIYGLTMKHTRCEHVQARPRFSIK

T2: CYP1A in mouse liver microsomes (MLM) (Mus musculus, UniProt P00186)
T2 sequence (P00186 2-513): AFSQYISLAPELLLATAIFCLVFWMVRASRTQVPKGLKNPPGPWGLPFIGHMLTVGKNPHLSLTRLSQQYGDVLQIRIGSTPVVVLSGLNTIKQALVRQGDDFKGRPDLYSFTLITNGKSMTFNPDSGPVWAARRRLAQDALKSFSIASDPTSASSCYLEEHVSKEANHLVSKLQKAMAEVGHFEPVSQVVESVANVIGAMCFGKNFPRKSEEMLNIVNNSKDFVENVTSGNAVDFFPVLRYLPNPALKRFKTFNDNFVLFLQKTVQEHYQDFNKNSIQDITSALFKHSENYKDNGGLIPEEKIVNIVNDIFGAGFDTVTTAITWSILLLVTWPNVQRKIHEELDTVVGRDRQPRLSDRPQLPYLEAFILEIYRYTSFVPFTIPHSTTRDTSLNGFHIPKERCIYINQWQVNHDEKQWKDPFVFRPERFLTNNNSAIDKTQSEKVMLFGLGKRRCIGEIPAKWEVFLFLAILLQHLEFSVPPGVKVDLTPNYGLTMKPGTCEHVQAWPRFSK

T3: CYP1A (NCMN O-demethylation) (Canis lupus familiaris, UniProt P56592)
T3 sequence (P56592 2-512): T1 sequence (P56592 2-512)

T4: CYP1A (NCMN O-demethylation) (Mus musculus, UniProt P00186)
T4 sequence (P00186 2-513): T2 sequence (P00186 2-513)

T5: CYP1A in human liver microsomes (HLM) (Homo sapiens, UniProt P05177)
T5 sequence (P05177 2-516): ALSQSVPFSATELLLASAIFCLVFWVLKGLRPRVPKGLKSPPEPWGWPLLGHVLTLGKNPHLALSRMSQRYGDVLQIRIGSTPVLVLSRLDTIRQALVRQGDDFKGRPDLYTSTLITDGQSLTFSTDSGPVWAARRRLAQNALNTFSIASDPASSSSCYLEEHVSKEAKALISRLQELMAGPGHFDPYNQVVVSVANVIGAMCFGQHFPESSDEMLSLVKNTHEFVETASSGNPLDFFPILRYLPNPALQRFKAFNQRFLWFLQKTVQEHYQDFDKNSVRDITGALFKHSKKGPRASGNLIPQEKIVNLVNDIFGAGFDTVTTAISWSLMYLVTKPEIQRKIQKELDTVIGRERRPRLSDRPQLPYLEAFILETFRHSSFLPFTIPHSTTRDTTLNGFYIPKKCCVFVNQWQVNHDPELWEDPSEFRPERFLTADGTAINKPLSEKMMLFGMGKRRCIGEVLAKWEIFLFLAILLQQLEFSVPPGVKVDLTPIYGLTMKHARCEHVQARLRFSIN

B1: CYP1A2 (Rat) (Rattus norvegicus) (protein)
chain: MAFSQYISLAPELLLATAIFCLVFWVLRGTRTQVPKGLKSPPGPWGLPFIGHMLTLGKNPHLSLTKLSQQYGDVLQIRIGSTPVVVLSGLNTIKQALVKQGDDFKGRPDLYSFTLITNGKSMTFNPDSGPVWAARRRLAQDALKSFSIASDPTSVSSCYLEEHVSKEANHLISKFQKLMAEVGHFEPVNQVVESVANVIGAMCFGKNFPRKSEEMLNLVKSSKDFVENVTSGNAVDFFPVLRYLPNPALKRFKNFNDNFVLFLQKTVQEHYQDFNKNSIQDITGALFKHSENYKDNGGLIPQEKIVNIVNDIFGAGFETVTTAIFWSILLLVTEPKVQRKIHEELDTVIGRDRQPRLSDRPQLPYLEAFILEIYRYTSFVPFTIPHSTTRDTSLNGFHIPKECCIFINQWQVNHDEKQWKDPFVFRPERFLTNDNTAIDKTLSEKVMLFGLGKRRCIGEIPAKWEVFLFLAILLHQLEFTVPPGVKVDLTPSYGLTMKPRTCEHVQAWPRFSK
notes: purchased Research Institute for Liver Diseases (RILD, Shanghai, China) Lot.int066e1c
B2: CYP1A2 (human) (Homo sapiens) (protein)
chain: MALSQSVPFSATELLLASAIFCLVFWVLKGLRPRVPKGLKSPPEPWGWPLLGHVLTLGKNPHLALSRMSQRYGDVLQIRIGSTPVLVLSRLDTIRQALVRQGDDFKGRPDLYTSTLITDGQSLTFSTDSGPVWAARRRLAQNALNTFSIASDPASSSSCYLEEHVSKEAKALISRLQELMAGPGHFDPYNQVVVSVANVIGAMCFGQHFPESSDEMLSLVKNTHEFVETASSGNPLDFFPILRYLPNPALQRFKAFNQRFLWFLQKTVQEHYQDFDKNSVRDITGALFKHSKKGPRASGNLIPQEKIVNLVNDIFGAGFDTVTTAISWSLMYLVTKPEIQRKIQKELDTVIGRERRPRLSDRPQLPYLEAFILETFRHSSFLPFTIPHSTTRDTTLNGFYIPKKCCVFVNQWQVNHDPELWEDPSEFRPERFLTADGTAINKPLSEKMMLFGMGKRRCIGEVLAKWEIFLFLAILLQQLEFSVPPGVKVDLTPIYGLTMKHARCEHVQARLRFSIN

What was measured:
[1] = biological target: T1, CYP1A in beagle dog liver microsomes (DLM); assay: Inhibition of NCMN-O-demethylation by CYP inhibitors in beagle dog liver microsomes; settings: DLM; 10 µM NCMN; 100 µM furafylline, 10 µM sulfaphenazole, 200 µM troleandomycin, 500 µM 1-ABT
[2] = test system: CYP1A in minipig liver microsomes (PLM); assay: Inhibition of NCMN-O-demethylation by CYP inhibitors in minipig liver microsomes; settings: PLM; 10 µM NCMN; 100 µM furafylline, 10 µM sulfaphenazole, 200 µM troleandomycin, 500 µM 1-ABT
[3] = biological target: T2, CYP1A in mouse liver microsomes (MLM); assay: Inhibition of NCMN-O-demethylation by CYP inhibitors in mouse liver microsomes; settings: MLM; 10 µM NCMN; 100 µM furafylline, 10 µM sulfaphenazole, 200 µM troleandomycin, 500 µM 1-ABT
[4] = test system: CYP1A in cynomolgus monkey liver microsomes (CyLM); assay: Inhibition of NCMN-O-demethylation by CYP inhibitors in cynomolgus monkey liver microsomes; settings: CyLM; 10 µM NCMN; 100 µM furafylline, 10 µM sulfaphenazole, 200 µM troleandomycin, 500 µM 1-ABT
[5] = test system: CYP1A in rat liver microsomes (RLM); assay: Inhibition of NCMN-O-demethylation by CYP inhibitors in rat liver microsomes; settings: RLM; 10 µM NCMN; 100 µM furafylline, 10 µM sulfaphenazole, 200 µM troleandomycin, 500 µM 1-ABT
[6] = biological target: T3, CYP1A (NCMN O-demethylation); assay: Inhibition of NCMN-O-demethylation by CYP inhibitors in beagle dog liver microsomes; settings: beagle, dog, pH 7.4
[7] = test system: CYP1A (NCMN O-demethylation); assay: Inhibition of NCMN-O-demethylation by CYP inhibitors in minipig liver microsomes; settings: minipig, pig, minipig liver microsomes, pH 7.4, probe NCMN (various concentrations; formation of NCHN)
[8] = biological target: T4, CYP1A (NCMN O-demethylation); assay: Inhibition of NCMN-O-demethylation by CYP inhibitors in mouse liver microsomes; settings: mouse, pH 7.4
[9] = test system: CYP1A (NCMN O-demethylation); assay: Inhibition of NCMN-O-demethylation by CYP inhibitors in cynomolgus monkey liver microsomes; settings: cynomolgus monkey, cynomolgus monkey liver microsomes, pH 7.4, probe NCMN (various concentrations; formation of NCHN)
[10] = test system: CYP1A (NCMN O-demethylation); assay: Inhibition of NCMN-O-demethylation by CYP inhibitors in rat liver microsomes; settings: rat, rat liver microsomes, pH 7.4, probe NCMN (various concentrations; formation of NCHN)
[11] = biological target: T5, CYP1A in human liver microsomes (HLM); assay: Inhibition of NCMN-O-demethylation by CYP inhibitors in human liver microsomes; settings: 10 µM NCMN, 100 µM furafylline, 10 µM sulfaphenazole, 200 µM troleandomycin, 500 µM 1-ABT
[12] = substrate: COc1ccc2c3c(cccc13)C(=O)N(CCCC(=O)O)C2=O; assay: Kinetic analysis of NCMN-O-demethylation in cDNA-expressed rat CYP1A2; type: in vitro ADME; settings: other: CYP1A2 (Rat), 100 nM; Michaelis-Menten; substrate 1-150 µM; pH 7.4; 37.0 °C
Experimental: (§1) The formation rates of NCHN were within the linear range of the protein concentration and incubation time. NCMN (1, 2.5, 5, 7.5, 10, 25, 50, 75, 100 and 150 µM) was incubated with HLM, MLM, RLM, DLM, PLM, CyLM (0.25mg protein/mL) as well as rat CYP1A2 (100 nM) for 30min. […] .

[13] = substrate: COc1ccc2c3c(cccc13)C(=O)N(CCCC(=O)O)C2=O; assay: Kinetic analysis of NCMN-O-demethylation in human CYP1A2; type: in vitro ADME; settings: other: CYP1A2 (human); substrate 1-150 µM; pH 7.4; 37.0 °C
Experimental: as §1

Molecule | Inhibition of the formation of NCHN [1] | Inhibition of the formation of NCHN [2] | Inhibition of the formation of NCHN [3] | Inhibition of the formation of NCHN [4] | Inhibition of the formation of NCHN [5] | also measured
Nn1nnc2ccccc21 [ABT, 1-Aminobenzotriazole] | potently inhibit | potently inhibit | potently inhibit | potently inhibit | potently inhibit | –
Cc1nc2c([nH]1)c(=O)n(C)c(=O)n2Cc1ccco1 [furafylline] | lower inhibitory effects | lower inhibitory effects | near completely | lower inhibitory effects | near completely | IC50 [6]: 26.8 µM; IC50 [7]: […]; IC50 [8]: 5.73 µM; IC50 [9]: […]; IC50 [10]: […]
Nc1ccc(S(=O)(=O)Nc2ccnn2-c2ccccc2)cc1 [sulfaphenazole] | less than 25% | less than 25% | less than 25% | less than 25% | less than 25% | Inhibition of the formation of NCHN [11]: less than 25%
B1 | – | – | – | – | – | Km [12]: 4.04 ± 0.16 µM; kcat [12]: 7.48±0.05 nmol/min/nmol CYP
B2 | – | – | – | – | – | Km [13]: 9.80 ± 0.67 µM; kcat [13]: 32.06 ± 0.50 nmol/min/nmol CYP
